Results: patent publication US20240316087A1, “Compositions And Methods For Inducing Apoptosis In Anaerobic Cells And Related Clinical Methods For Treating Cancer And Pathogenic Infections” (priority 2017, published 2024)

What was measured:
[1] = test system: circulating tumor cells (CTCs); assay: Salicinium induction of apoptosis in cultured circulating tumor cells from patient samples; assay type: cell-based, human
Excerpt: Circulating tumor cells (CTCs) were isolated and characterized from patients with diverse diagnoses of cancer (including a wide variety of primary cancer types, with and without metastasis) using conventional flow cytometry modified to a multiparameter flow cytometric panel employing magnetic bead separation methods to characterize CTCs and isolate them from patient blood samples. In one exemplary modified procedure for isolating and characterizing CTCs from breast cancer patients, the flow cytometry panel included CD45-PE/Cy7, CD31-RPE, pan cytokeratin-PE/Cy5, c-met-PE and MUC-1(CD227)-FITC. CTCs were identified as CD45-/CD31-/PanCK+/MUC1+and metastatic cells as CD45-/c-met+. CTC isolation and cultivation utilized PBMCs from patients isolated using ficoll centrifugation methods and incubated with EpCAM magnetic beads to isolate the CTCs.
Isolated CTCs were cultured in serum free RPMI medium. […] Apoptosis quantification was based on observed cytoplasmic, nuclear and membrane changes diagnostic for apoptosis. In early stage of apoptosis, cells expand and become round, detach from adjacent cells or substrate and shrink. In the cytoplasm, the endoplasmic reticulum expands and turns vacuolar. In the nucleus, chromatin condenses in a crescent form around the nuclear membranes and becomes more basophilic. Eventually the nucleus fragments and cells convert to apoptotic bodies in containing fragmented nuclear and cellular materials. In vivo these apoptotic bodies are recognized and digested by phagocytes without raising inflammatory responses.
Data were analyzed using SPSS software, and T test methodology was used to compare data sets. A significance level of p<0.05 was considered statistically significant.

caspase-9 = assay: Caspase-9 levels in Salicinium-treated versus control CTC samples; assay type: cell-based, human; conditions: diverse CTCs from different cancer types
Excerpt: Additional studies evaluated caspase levels in CTC samples treated or untreated with Salicinium. Caspases are major executants of apoptosis. […] During apoptosis these pro-enzymes are converted into active enzymes which mediate apoptosis in part by degrading intracellular proteins, for example cytoskeletal proteins, causing profound morphological changes of cells. Caspase-3 is activated by upstream caspases (caspase-8, caspase-9 or caspase-10), and in turn Caspase-3 activates endonuclease CAD (caspase activated DNase). […] In apoptosis, ICAD is cut by caspase-3 and release CAD, followed by rapid fragmentation of DNA.
Caspase-9 levels were compared in control CTC samples and Salicinium-treated CTC samples according to conventional assay methods.

[2] = test system: alpha-N-acetylgalactosaminidase (nagalase); conditions: human, in vivo
[3] = test system: EBV, hepatitis C, CMV and herpes II virus; assay: Viral load assays in treated patients; assay type: in vivo, human
Excerpt: These patients were selected as having been diagnosed with a heavy load, chronic viral infection and/or Stage IV cancer. Some of these subjects presented with only viral infection, and some with only Stage IV cancer, whereas a sizeable group of 64 subjects had co-morbid Stage IV cancer attended by a heavy load chronic viral infection. The principal viral subjects in these studies were Epstein Barr virus (EBV), hepatitis C virus, cytomegalovirus (CMV) and herpes virus.
Nagalase levels and viral load were quantified using conventional assays for each patient, before and after successive iv Salicinium® treatments, and after extended oral Salicinium follow-on therapy (using the […] and oral treatment protocol described in Example II, above).

[4] = 967 patient CTC samples, helicidum 0.5 mg/ml, 24 hours

## 4-(beta-D-allopyranosyloxy)-benzaldehyde [Salicinium]
[1]; [4]
  patient CTC samples showing no detectable apoptotic activity: 18%
  patient CTC samples showing statistically significant sensitivity to induction of apoptosis: 82%
[1]; majority of other cancer types tested, single exposure, 24-hour test period
  CTC cells in sample undergoing apoptosis: 20-25%
[1]; more sensitive cancer types: lung, colorectal, sarcoma and renal cancer, single dose, 24 hours
  CTC cells in sample undergoing apoptosis: 30-35%
caspase-9
  caspase-9 levels in treated versus control CTC samples: potent induction of elevated caspase-9 levels
[2]
  median nagalase level: 0.78 Units
  patients with pronounced reductions in nagalase levels: 83%
  study patients with nagalase levels below 0.95 Units (normal range): 86%
  study patients with nagalase levels below 1.0 units: 72%
[3]; EBV and herpes II subjects, within six months following initial iv treatment
  treated subjects in whom high load viral infection became undetectable: 50%
[3]; EBV, hepatitis C, CMV and herpes II, first month
  drop in median viral loads: 20-25%
[3]; EBV, hepatitis C, CMV and herpes II, within three months after treatment
  additional drop in median viral loads: 20%
[3]; EBV, hepatitis C, herpes virus and CMV, after one year
  viral subjects entirely clear of detectable virus: 87%
